This is an account of results in patent US10670605B2, “Cysteine reactive probes and uses thereof” (The Scripps Research Institute, priority 2015, dated 2020).

Molecules are shown by their SMILES.

Experiment in all cases: Competitive isoTOP-ABPP in situ (fragment-treated cells)
Holding throughout (type): cell-based

Experiment [1] concerns the target cysteines in MDA-MB-231 and Ramos cells (Homo sapiens, UniProt Q92616). The note with it: 200 μM, insitu.
Experiment [2] addresses T1, cysteines in MDA-MB-231 and Ramos cells (Homo sapiens, UniProt Q9UKX7).
T1 sequence (Q9UKX7 1-468): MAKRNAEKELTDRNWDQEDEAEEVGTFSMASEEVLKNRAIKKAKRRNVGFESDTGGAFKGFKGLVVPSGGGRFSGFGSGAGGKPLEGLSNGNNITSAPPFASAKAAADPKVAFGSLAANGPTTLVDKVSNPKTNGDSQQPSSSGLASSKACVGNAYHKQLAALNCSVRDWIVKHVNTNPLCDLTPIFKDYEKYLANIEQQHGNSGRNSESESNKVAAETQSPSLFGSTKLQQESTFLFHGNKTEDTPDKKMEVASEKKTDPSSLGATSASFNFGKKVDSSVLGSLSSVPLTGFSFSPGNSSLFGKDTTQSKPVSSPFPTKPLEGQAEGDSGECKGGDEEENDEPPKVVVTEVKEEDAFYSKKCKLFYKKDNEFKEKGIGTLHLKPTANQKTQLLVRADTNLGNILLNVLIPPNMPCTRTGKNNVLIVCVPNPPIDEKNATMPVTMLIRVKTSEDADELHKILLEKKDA

Experiment [3] concerns the target T2, cysteines in MDA-MB-231 and Ramos cells (Homo sapiens, UniProt Q9HA64).
T2 sequence (Q9HA64 1-309): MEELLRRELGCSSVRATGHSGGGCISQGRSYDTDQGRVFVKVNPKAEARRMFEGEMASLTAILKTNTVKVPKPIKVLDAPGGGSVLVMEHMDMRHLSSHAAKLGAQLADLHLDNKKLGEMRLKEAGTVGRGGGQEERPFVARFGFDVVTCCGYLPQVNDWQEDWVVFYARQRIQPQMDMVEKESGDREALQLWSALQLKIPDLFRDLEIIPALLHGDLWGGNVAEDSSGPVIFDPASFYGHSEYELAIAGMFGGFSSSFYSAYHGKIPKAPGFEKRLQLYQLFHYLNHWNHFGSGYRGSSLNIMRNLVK

Experiment [4] concerns the target cysteines in MDA-MB-231 and Ramos cells (Homo sapiens, UniProt Q8NFF5).
Experiment [5] addresses cysteines in MDA-MB-231 and Ramos cells (Homo sapiens, UniProt Q5UIP0).
Experiment [6] concerns the target cysteines in MDA-MB-231 and Ramos cells (Homo sapiens, UniProt O75150). The note with it: 200 μM, insitu.
Experiment [7] has as its target T3, cysteines in MDA-MB-231 and Ramos cells (Homo sapiens, UniProt O94953).
T3 sequence (O94953 1-1096): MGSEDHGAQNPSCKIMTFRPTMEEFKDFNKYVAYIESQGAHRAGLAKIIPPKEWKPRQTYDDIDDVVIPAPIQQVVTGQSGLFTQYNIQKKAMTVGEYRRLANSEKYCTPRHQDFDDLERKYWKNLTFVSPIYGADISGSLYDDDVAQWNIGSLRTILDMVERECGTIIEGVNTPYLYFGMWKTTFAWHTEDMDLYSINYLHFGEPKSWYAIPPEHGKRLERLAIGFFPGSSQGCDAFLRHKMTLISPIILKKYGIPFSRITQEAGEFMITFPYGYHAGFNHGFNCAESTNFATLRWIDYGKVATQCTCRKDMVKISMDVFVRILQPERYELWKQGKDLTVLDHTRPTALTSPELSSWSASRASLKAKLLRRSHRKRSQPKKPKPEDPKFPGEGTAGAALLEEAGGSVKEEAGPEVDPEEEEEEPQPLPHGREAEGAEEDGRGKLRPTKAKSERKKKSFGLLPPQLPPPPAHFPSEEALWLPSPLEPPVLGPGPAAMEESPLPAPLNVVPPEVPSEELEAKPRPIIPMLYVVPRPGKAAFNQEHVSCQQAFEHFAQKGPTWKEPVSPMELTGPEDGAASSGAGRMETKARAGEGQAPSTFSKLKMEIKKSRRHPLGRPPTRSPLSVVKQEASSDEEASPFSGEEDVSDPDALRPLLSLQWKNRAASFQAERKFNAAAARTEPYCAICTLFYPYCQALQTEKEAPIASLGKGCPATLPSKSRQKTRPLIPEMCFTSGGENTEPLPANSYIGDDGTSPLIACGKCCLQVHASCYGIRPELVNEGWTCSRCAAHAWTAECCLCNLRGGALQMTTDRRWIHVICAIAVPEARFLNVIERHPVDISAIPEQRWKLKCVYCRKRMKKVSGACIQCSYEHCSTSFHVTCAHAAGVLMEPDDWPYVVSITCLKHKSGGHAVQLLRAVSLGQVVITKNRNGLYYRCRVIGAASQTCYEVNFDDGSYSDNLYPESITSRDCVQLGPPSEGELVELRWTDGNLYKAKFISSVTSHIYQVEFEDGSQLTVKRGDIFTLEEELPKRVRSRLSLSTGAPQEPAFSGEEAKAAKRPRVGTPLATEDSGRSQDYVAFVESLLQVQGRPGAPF
The note with it: 200 μM, insitu, ramos.

Experiment [8] deals with T4, cysteines in MDA-MB-231 and Ramos cells (Homo sapiens, UniProt Q9GZR2).
T4 sequence (Q9GZR2 1-422): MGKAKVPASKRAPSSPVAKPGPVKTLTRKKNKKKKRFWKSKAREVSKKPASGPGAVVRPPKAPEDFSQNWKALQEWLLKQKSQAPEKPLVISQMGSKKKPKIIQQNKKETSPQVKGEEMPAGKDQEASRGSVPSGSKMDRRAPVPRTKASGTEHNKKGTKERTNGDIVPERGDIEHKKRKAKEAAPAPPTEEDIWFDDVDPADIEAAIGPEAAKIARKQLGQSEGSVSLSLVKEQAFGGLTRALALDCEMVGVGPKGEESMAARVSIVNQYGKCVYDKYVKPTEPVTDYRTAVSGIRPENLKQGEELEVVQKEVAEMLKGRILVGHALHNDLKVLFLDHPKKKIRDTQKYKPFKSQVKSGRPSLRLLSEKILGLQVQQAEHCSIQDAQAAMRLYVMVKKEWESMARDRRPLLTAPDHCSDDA
The note with it: 200 μM, insitu.

Experiment [9] addresses T5, cysteines in MDA-MB-231 and Ramos cells (Homo sapiens, UniProt Q8N5L8).
T5 sequence (Q8N5L8 1-163): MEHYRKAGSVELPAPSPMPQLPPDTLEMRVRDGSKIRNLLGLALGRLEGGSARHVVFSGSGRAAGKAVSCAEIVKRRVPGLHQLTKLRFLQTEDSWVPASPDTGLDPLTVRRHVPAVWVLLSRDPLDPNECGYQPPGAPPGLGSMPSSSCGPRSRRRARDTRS
The note with it: 200 μM, insitu, 231.

Sequence of cysteines in MDA-MB-231 and Ramos cells (Homo sapiens, UniProt Q8NFF5) (Q8NFF5 18-587): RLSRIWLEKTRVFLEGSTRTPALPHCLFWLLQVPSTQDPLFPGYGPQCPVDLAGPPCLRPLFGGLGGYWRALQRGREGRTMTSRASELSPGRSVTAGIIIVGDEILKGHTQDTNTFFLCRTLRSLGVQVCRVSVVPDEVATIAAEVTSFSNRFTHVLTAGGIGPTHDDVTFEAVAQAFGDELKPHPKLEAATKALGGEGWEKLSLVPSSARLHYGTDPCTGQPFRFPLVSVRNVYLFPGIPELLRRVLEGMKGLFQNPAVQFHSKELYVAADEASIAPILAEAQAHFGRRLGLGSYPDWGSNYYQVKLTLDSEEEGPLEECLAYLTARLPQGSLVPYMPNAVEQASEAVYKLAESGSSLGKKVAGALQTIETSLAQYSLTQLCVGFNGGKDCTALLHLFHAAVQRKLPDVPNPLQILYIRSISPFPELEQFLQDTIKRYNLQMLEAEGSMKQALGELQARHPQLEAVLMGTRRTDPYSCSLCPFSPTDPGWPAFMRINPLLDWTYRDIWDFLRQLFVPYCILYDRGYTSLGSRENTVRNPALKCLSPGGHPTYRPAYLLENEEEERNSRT
Sequence of cysteines in MDA-MB-231 and Ramos cells (Homo sapiens, UniProt Q5UIP0) (Q5UIP0 whole entry): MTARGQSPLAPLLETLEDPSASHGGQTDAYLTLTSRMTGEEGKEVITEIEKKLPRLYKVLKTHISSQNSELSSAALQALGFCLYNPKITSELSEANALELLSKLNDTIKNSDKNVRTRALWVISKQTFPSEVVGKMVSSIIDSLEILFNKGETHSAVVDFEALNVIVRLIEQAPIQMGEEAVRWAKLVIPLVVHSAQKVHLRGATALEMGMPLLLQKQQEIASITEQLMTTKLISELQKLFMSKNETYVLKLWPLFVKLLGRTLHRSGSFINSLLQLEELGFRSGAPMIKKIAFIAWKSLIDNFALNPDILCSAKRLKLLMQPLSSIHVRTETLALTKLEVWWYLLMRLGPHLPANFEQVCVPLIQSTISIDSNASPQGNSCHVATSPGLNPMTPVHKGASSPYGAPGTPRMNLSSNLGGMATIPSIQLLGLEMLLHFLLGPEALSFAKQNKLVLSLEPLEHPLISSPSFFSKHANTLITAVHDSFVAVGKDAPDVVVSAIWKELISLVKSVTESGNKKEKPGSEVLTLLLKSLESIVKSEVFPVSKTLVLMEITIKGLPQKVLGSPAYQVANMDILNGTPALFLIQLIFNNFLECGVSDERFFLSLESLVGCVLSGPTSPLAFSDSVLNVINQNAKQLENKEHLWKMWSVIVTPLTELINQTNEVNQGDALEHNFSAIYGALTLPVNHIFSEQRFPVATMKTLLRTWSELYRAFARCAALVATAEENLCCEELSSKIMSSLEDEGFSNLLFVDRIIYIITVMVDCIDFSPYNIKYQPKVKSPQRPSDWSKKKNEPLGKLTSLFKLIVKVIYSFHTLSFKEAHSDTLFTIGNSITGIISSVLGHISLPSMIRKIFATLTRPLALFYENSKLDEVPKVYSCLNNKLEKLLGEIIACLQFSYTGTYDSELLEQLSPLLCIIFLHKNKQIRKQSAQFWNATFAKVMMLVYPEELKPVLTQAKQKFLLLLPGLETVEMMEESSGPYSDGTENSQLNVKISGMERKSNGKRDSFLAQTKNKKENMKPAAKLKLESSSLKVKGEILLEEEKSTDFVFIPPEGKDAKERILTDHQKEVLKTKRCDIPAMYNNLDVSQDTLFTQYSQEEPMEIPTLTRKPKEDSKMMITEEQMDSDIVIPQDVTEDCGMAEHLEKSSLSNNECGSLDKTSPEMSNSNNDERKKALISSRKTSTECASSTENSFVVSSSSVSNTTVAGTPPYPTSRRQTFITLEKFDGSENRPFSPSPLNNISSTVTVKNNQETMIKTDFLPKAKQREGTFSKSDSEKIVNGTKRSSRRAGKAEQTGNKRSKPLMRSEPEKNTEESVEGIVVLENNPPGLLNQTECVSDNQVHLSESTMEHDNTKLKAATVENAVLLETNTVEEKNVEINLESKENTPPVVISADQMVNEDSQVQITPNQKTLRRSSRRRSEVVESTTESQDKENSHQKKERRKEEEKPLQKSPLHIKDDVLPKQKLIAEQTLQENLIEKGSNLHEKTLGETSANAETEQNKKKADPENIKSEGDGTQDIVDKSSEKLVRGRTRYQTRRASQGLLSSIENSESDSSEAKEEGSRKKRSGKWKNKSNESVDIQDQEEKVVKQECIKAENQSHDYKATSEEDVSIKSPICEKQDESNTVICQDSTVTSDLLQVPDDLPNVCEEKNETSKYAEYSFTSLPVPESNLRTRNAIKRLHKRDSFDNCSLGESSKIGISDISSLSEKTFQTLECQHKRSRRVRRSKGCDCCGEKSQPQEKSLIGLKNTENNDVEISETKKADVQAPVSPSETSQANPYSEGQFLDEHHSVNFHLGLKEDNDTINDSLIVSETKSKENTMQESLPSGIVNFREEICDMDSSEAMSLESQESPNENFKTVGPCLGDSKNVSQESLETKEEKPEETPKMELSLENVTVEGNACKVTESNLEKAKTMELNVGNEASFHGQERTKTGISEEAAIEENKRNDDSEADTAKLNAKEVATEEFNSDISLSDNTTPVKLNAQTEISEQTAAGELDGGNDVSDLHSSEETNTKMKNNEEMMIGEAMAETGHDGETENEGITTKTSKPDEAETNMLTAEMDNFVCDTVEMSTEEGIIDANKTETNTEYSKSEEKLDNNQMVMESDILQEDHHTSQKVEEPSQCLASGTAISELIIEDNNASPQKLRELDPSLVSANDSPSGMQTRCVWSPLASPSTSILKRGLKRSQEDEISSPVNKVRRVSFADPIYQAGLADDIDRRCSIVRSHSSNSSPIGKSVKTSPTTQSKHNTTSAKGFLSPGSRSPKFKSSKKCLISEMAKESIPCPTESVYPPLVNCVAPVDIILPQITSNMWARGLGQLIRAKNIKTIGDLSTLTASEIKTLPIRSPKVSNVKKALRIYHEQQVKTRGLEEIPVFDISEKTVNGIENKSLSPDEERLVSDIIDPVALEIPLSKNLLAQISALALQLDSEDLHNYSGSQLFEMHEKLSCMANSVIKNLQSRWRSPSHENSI
Sequence of cysteines in MDA-MB-231 and Ramos cells (Homo sapiens, UniProt O75150) (O75150 whole entry): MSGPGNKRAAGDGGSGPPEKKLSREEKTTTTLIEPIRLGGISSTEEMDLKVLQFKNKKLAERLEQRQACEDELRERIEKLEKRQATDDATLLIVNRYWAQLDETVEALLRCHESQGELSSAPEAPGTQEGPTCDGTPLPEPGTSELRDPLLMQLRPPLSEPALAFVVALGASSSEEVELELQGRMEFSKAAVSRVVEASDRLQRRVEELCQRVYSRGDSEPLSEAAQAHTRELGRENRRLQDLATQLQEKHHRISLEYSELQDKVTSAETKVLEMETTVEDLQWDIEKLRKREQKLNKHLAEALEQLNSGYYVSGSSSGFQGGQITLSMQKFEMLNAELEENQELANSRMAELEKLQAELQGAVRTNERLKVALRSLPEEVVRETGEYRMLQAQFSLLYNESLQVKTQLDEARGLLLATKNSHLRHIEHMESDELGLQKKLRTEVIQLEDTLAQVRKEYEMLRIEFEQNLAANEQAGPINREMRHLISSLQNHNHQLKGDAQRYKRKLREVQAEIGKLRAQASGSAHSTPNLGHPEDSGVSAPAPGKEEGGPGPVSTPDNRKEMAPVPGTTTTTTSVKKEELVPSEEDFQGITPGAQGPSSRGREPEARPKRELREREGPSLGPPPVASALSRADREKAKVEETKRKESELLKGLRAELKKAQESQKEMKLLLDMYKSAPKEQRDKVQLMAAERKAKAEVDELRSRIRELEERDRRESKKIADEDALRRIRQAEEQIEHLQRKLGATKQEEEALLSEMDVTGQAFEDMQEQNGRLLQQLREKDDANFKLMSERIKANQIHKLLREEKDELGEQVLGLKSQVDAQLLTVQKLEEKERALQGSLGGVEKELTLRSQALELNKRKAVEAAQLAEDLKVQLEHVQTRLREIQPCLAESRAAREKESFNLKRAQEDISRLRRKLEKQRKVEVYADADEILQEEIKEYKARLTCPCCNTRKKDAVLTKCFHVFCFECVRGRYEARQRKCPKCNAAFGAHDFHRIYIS

With `COc1ccc2c(c1)CCCN2C(=O)CCl` [compound 2], in experiment [1] (231), the “isoTOP-ABPP reactivity Q92616_C1692 GCN1L1” value was 1.4. In addition, the “isoTOP-ABPP reactivity Q9UKX7_C151 NUP50” value in experiment [2] (200 μM, insitu, 231) was 6.1. Further, the “isoTOP-ABPP reactivity Q9HA64_C24 FN3KRP” value in experiment [3] (200 μM, insitu, 231) stood at 6.3. Moreover, the “isoTOP-ABPP reactivity Q8NFF5_C499 FLAD1” value in experiment [4] (200 μM, insitu, 231) is on record as 6.2.
For `COc1ccc(C2CC(c3cccs3)=NN2C(=O)CCl)cc1` (stereo not drawn) [compound 4], the “isoTOP-ABPP reactivity Q5UIP0_C2298 RIF1” value in experiment [5] (100 μM in situ 231) stood at 20.0. Further, in experiment [3] (100 μM in situ 231), the “isoTOP-ABPP reactivity Q9HA64_C24 FN3KRP” value amounted to 20.0.
Take `O=C(CCl)N1CCC(Cc2ccccc2)CC1` [compound 9]: the “isoTOP-ABPP reactivity Q9HA64_C24 FN3KRP” value in [3] (200 μM, insitu, 231) was determined as 20.0.
For the compound `O=C(CCl)N1CCN(S(=O)(=O)c2ccccc2F)CC1` [compound 10], the “isoTOP-ABPP ratio, cysteine Q5UIP0_C2298” value in experiment [5] (200 μM, insitu, 231) worked out at 20.0. For the same compound, the “isoTOP-ABPP ratio, cysteine O75150_C890” value in experiment [6] (ramos) is given as 4.2. The “isoTOP-ABPP ratio, cysteine O94953_C694” value in experiment [7] is 3.9.
Take `Cn1cc(S(=O)(=O)N2CCOCC2)cc1C(=O)NC(=O)CCl` [compound 11]: in experiment [5] (100 μM in situ 231), the “isoTOP-ABPP ratio, cysteine Q5UIP0_C2298” value was determined as 1.3. The “isoTOP-ABPP ratio, cysteine Q9UKX7_C151” value in experiment [2] (100 μM in situ 231) came out at 1.0. Besides, in [4] (100 μM in situ 231), the “isoTOP-ABPP ratio, cysteine Q8NFF5_C499” value worked out at 16.
Consider `O=C(CCl)NC(=O)NC12CC3CC(CC(C3)C1)C2` [compound 12], for which, in experiment [2] (200 μM, insitu, 231), the “isoTOP-ABPP ratio, cysteine Q9UKX7_C151” value was found to be 6.7. For the same compound, in experiment [6] (231), the “isoTOP-ABPP ratio, cysteine O75150_C890” value came out at 1.1. For the same compound, the “isoTOP-ABPP ratio, cysteine Q9GZR2_C382” value in [8] (231) is 20.0.
In the case of `O=C(CCl)NCCc1c[nH]c2ccccc12` [compound 13], in experiment [1] (ramos), the “isoTOP-ABPP ratio, cysteine Q92616_C1692” value is listed as 0.9. For the same compound, in experiment [9], the “isoTOP-ABPP ratio, cysteine Q8N5L8_C131” value was 1.2. For the same compound, the “isoTOP-ABPP ratio, cysteine O94953_C694” value in [7] was determined as 1.5. Also, the “isoTOP-ABPP ratio, cysteine Q9GZR2_C382” value in experiment [8] (ramos) amounted to 0.9.
For the compound `O=C(CCl)NC12CC3CC(CC(C3)C1)C2` [compound 21], the “isoTOP-ABPP ratio, cysteine Q5UIP0_C2298” value in experiment [5] (200 μM, insitu, 231) amounted to 0.9. The “isoTOP-ABPP ratio, cysteine Q9HA64_C24” value in [3] (200 μM, insitu, 231) came to 0.6. Moreover, the “isoTOP-ABPP ratio, cysteine Q8N5L8_C131” value in experiment [9] is 0.8.
For the compound `CC(C)CCOCCNC(=O)CCl` [compound 27], in experiment [1] (231), the “isoTOP-ABPP ratio Q92616_C1692” value is 0.5. Also, the “isoTOP-ABPP ratio O75150_C890” value in experiment [6] (231) was determined as 1.2.
Take `O=C(CCl)N1CCN(CC(=O)N2CCOCC2)CC1` [compound 29]: in [4] (200 μM, insitu, ramos), the “isoTOP-ABPP ratio Q8NFF5_C499” value was 3.4. Further, the “isoTOP-ABPP ratio, O94953_C694” value in [7] was found to be 1.1.
With `C=CC(=O)N(Cc1cccnc1)c1cc(C(F)(F)F)cc(C(F)(F)F)c1` [compound 31], the “isoTOP-ABPP ratio Q92616_C1692” value in [1] (231) came out at 0.6; in [1] (ramos), 2.0. Also, the “isoTOP-ABPP ratio O75150_C890” value in experiment [6] (231) worked out at 0.7.
Consider `C=CC(=O)Nc1cc(F)c(N2CCN(C(=O)OC(C)(C)C)CC2)c(F)c1` [compound 38], for which the “isoTOP-ABPP ratio Q9HA64_C24” value in experiment [3] (200 μM, insitu, 231) was found to be 1.7.
As to `Cc1ccc(C=C(C#N)C(=O)NCCN2CCOCC2)cc1` [compound 41], the “isoTOP-ABPP ratio Q92616_C1692” value in [1] (231) was 0.7. Also, the “isoTOP-ABPP ratio Q9UKX7_C151” value in experiment [2] (200 μM, insitu, 231) was found to be 0.8. The “isoTOP-ABPP ratio O75150_C890” value in experiment [6] (231) came out at 1.3.
As for `CC1CCc2ccccc2N1C(=O)CCl` (stereo not drawn) [compound 45], the “isoTOP-ABPP ratio Q8N5L8_C131” value in experiment [9] came out at 7.3. Further, the “isoTOP-ABPP ratio Q9GZR2_C382” value in experiment [8] (231) was found to be 20.0.
